Assay results from patent US12157730B2, “Heteroaryl derivative, method for producing same, and pharmaceutical composition comprising same as effective component” (VORONOI INC., priority 2019, dated 2024).

Molecular target: T1, Ba/F3 cell EGFR Exon20 ins NPH (Homo sapiens, UniProt P00533, INS773NPH)
T1 construct: expressed in transfected cells; host or cells: Ba/F3
Test: Ba/F3 cell proliferation suppression, EGFR Exon20 ins NPH
Type: cell-based
Details: GI50 class; Ba/F3 cell line with NPH inserted at Exon20 of EGFR; 72 hours
Procedure, shortened: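 Seed 3000–5000 cells/well; after 24 h add compound (12 conc., 0.3 nM–50 um final); incubate 72 h; add CellTiter-Glo, 10 min room temperature; read luminescence; GI50 from % growth vs control, triplicate.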

| Ba/F3 (NPH) Activity | Compound |
| --- | --- |
| A (GI50 < 50 nM) | C=CC(=O)Nc1cc(Nc2cc(N3OCC[C@@H]3c3cccc(C#N)c3)ncn2)c(OC)cc1N1C[C@H]2CCN(C)[C@H]2C1 [compound 331, N-(5-((6-((R)-3-(3-cyanophenyl)isoxazolidine-2-yl)pyrimidine-4-yl)amino)-4-methoxy-2-((3aR, 6aR)-1-methylhexahydropyrrolo [3,4-b]pyrrole-5(1H)-yl)phenyl)acrylamide] |
| B (50 nM ≤ GI50 < 500 nM) | C=CC(=O)Nc1cc(Nc2cc(N3OCC[C@@H]3c3c(F)ccc(F)c3Cl)ncn2)c(OC)cc1N1CCN(C2CC2)CC1 [compound 691, N-(5-((6-((R)-3-(2-chloro-3,6-difluorophenyl)isoxazolidine-2-yl)pyrimidine-4-yl)amino)-2-(4-cyclopropylpiperazine-1-yl)-4-methoxyphenyl) acrylamide] |
| A (GI50 < 50 nM) | C=CC(=O)Nc1cc(Nc2cc(N3OCC[C@@H]3c3cccc(C(F)(F)F)c3)ncn2)c(OC)cc1N1CCC(N(C)C)CC1 [compound 451, N-(2-(4-(dimethlamino)piperidine-1-yl)-4-methoxy-5-((6-((R)-3-(3-(trifluoromethyl)phenyl)isoxazolidine-2-yl)pyrimidine-4-yl)amino)phenyl) acrylamide] |
| A (GI50 < 50 nM) | C=CC(=O)Nc1cc(Nc2cc(N3OCC[C@@H]3c3ccc(F)c(Cl)c3)ncn2)c(OC)cc1N1CCC(N2C[C@@H](C)N(C3CC3)C[C@H]2C)CC1 [Example 178, N-(5-((6-((R)-3-(3-chloro-4-fluorophenyl)isoxazolidine-2-yl)pyrimidine-4-yl)amino)-2-(4-((2R,5R)-4-cyclopropyl-2,5-dimethylpiperazine-1-yl)piperidine-1-yl)-4-methoxyphenyl) acrylamide] |
| A (GI50 < 50 nM) | C=CC(=O)Nc1cc(Nc2cc(N3OCC[C@@H]3c3c(F)ccc(F)c3Cl)ncn2)c(OC)cc1N1CCC(N2C[C@@H]3C[C@H]2CO3)CC1 [compound 693, N-(2-(4-((1S,4S)-2-oxa-5-azabicyclo[2.2.1]heptane-5-yl)piperidine-1-yl)-5-((6-((R)-3-(2-chloro-3,6-difluorophenyl)isoxazolidine-2-yl)pyrimidine-4-yl)amino)-4-methoxyphenyl) acrylamide] |
| A (GI50 < 50 nM) | C=CC(=O)Nc1cc(Nc2cc(N3OCC[C@@H]3c3cccc(F)c3F)ncn2)c(OC)cc1N1CCN(C2COC2)CC1 [compound 923, N-(5-((6-((R)-3-(2,3-difluorophenyl)isoxazolidine-2-yl)pyrimidine-4-yl)amino)-4-methoxy-2-(4-(oxetane-3-yl)piperazine-1-yl)phenyl) acrylamide] |
| C (500 nM ≤ GI50 < 5000 nM) | C=CC(=O)Nc1cc(Nc2cc(N3OCC[C@@H]3Cc3ccccc3)ncn2)c(OC)cc1N1CCC(OCCN(CC)CC)CC1 [compound 978, N-(5-((6-((S)-3-benzylisoxazolidine-2-yl)pyrimidine-4-yl)amino)-2-(4-(2-(diethylamino)ethoxy)piperidine-1-yl)-4-methoxyphenyl) acrylamide] |
| A (GI50 < 50 nM) | C=CC(=O)Nc1cc(Nc2cc(N3OCC[C@@H]3c3ccc(Cl)c(Cl)c3)ncn2)c(OC)cc1N1C[C@@H]2C[C@H]1CO2 [compound 612, N-(2-((1S,4S)-2-oxa-5-azabicyclo[2.2.1]heptane-5-yl)-5-((6-((R)-3-(3,4-dichlorophenyl)isoxazolidine-2-yl)pyrimidine-4-l)amino)-4-methoxyphenyl) acrylamide] |
| C (500 nM ≤ GI50 < 5000 nM) | C=CC(=O)Nc1cc(Nc2cc(N3OCC[C@H]3c3c(F)cccc3F)ncn2)c(OC)cc1N1CCC(N2CCN(C3CC3)CC2)CC1 [Example 129, N-(2-(4-(4-cyclopropylpiperazine-1-yl)piperidine-1-yl)-5-((6-((S)-3-(2,6-difluorophenyl)isoxazolidine-2-yl)pyrimidine-4-yl)amino)-4-methoxyphenyl) acrylamide] |
| A (GI50 < 50 nM) | C=CC(=O)Nc1cc(Nc2cc(N3OCC[C@@H]3Cc3cccc(Cl)c3Cl)ncn2)c(OC)cc1N1CCC(N2CCO[C@H](C)C2)CC1 [compound 1011, N-(5-((6-((S)-3-(2,3-dichlorobenzyl)isoxazolidine-2-yl)pyrimidine-4-yl)amino)-4-methoxy-2-(4-((R)-2-methylmorpholino)piperidine-1-yl)phenyl) acrylamide] |
| B (50 nM ≤ GI50 < 500 nM) | C=CC(=O)Nc1cc(Nc2cc(N3OCC[C@@H]3c3ccc(F)c(Cl)c3F)ncn2)c(OC)cc1N1C[C@H](C)O[C@@H](C)C1 [compound 658, N-(5-((6-((R)-3-(3-chloro-2,4-difluorophenyl)isoxazolidine-2-yl)pyrimidine-4-yl)amino)-2-((2S,6S)-2,6-dimethylmorpholino)-4-methoxyphenyl) acrylamide] |
| B (50 nM ≤ GI50 < 500 nM) | C=CC(=O)Nc1cc(Nc2cc(N3OCC[C@@H]3c3cccc(Cl)c3Cl)ncn2)c(OC)cc1N1CCC(N2CCN(C3CCN(C)CC3)CC2)CC1 [compound 611] |
| B (50 nM ≤ GI50 < 500 nM) | C=CC(=O)Nc1cc(Nc2cc(N3OCC[C@@H]3c3cccc(C#N)c3)ncn2)c(OC)cc1N1CC[C@@H](N(C)C)C1 [compound 395, N-(5-((6-((R)-3-(3-cyanophenyl)isoxazolidine-2-yl)pyrimidine-4-yl)amino)-2-((R)-3-(dimethylamino)pyrolidine-1-yl)-4-methoxyphenyl) acrylamide] |
| A (GI50 < 50 nM) | C=CC(=O)Nc1cc(Nc2cc(N3OCC[C@@H]3c3c(F)ccc(F)c3F)ncn2)c(OC)cc1N1CCC(N2C[C@H]3C[C@@H]2CO3)CC1 [compound 641, N-(2-(4-((1R,4R)-2-oxa-5-azabicyclo[2.2.1]heptane-5-yl)piperidine-1-yl)-4-methoxy-5-((6-((R)-3-(2,3,6-trifluorophenyl)isoxazolidine-2-yl)pyrimidine-4-yl)amino)phenyl)acrylamide] |
| A (GI50 < 50 nM) | COc1cc(N2CCOCC2)c(NC(=O)/C=C/CN(C)C)cc1Nc1cc(N2OCC[C@@H]2c2cc(F)cc(F)c2)ncn1 [compound 397, N-(5-((6-((R)-3-(3,5-difluorophenyl)isoxazolidine-2-yl)pyrimidine-4-yl)amino)-4-methoxy-2-morpholinophenyl)-(E)-4-(dimethylamino)but-2-enamide] |
| A (GI50 < 50 nM) | C=CC(=O)Nc1cc(Nc2cc(N3OCC[C@@H]3c3ccc(Cl)c(Cl)c3)ncn2)c(OC)cc1N1CCC(N(C)C)CC1 [compound 677, N-(5-((6-((R)-3-(3,4-dichlorophenyl)isoxazolidine-2-yl)pyrimidine-4-yl)amino)-2-(4-(dimethylamino)piperidine-1-yl)-4-methoxyphenyl) acrylamide] |
| A (GI50 < 50 nM) | C=CC(=O)Nc1cc(Nc2cc(N3OCC[C@@H]3Cc3cc(F)cc(F)c3)ncn2)c(OC)cc1N1CCC(N2C[C@@H]3C[C@H]2CO3)CC1 [compound 1035, N-(2-(4-((1S,4S)-2-oxa-5-azabicyclo [2.2.1]heptane-5-yl)piperidine-1-yl)-5-((6-((S)-3-(3,5-difluorobenzyl)isoxazolidine-2-yl)pyrimidine-4-yl)amino)-4-methoxyphenyl) acrylamide] |
| C (500 nM ≤ GI50 < 5000 nM) | C=CC(=O)Nc1cc(Nc2cc(N3OCC[C@@H]3c3ccc(F)c(F)c3F)ncn2)c(OC)cc1N1CC[C@@H](N(C)C)C1 [compound 622, N-(2-((R)-3-(dimethylamino)pyrolidine-1-yl)-4-methoxy-5-((6-((R)-3-(2,3,4-trifluorophenyl)isoxazolidine-2-yl)pyrimidine-4-yl)amino)phenyl)acrylamide] |
| B (50 nM ≤ GI50 < 500 nM) | C=CC(=O)Nc1cc(Nc2cc(N3OCC[C@@H]3c3cc(F)cc(F)c3)ncn2)c(OC)cc1N1C[C@@H]2C[C@H]1CO2 [compound 437, N-(2-((1S,4S)-2-oxa-5-azabicyclo [2.2.1]heptane-5-yl)-5-((6-((R)-3-(3,5-difluorophenyl)isoxazolidine-2-yl)pyrimidine-4-yl)amino)-4-methoxyphenyl) acrylamide] |
| A (GI50 < 50 nM) | C=CC(=O)Nc1cc(Nc2cc(N3OCC[C@@H]3Cc3cccc(Cl)c3F)ncn2)c(OC)cc1N1CCC(N2CCN(C3CC3)[C@H](C)C2)CC1 [compound 1019, N-(5-((6-((S)-3-(3-chloro-2-fluorobenzyl)isoxazolidine-2-yl)pyrimidine-4-yl)amino)-2-(4-((R)-4-cyclopropyl-3-methylpiperazine-1-yl)piperidine-1-yl)-4-methoxyphenyl) acrylamide] |
| A (GI50 < 50 nM) | C=CC(=O)Nc1cc(Nc2cc(N3OCC[C@@H]3c3cccc(OC)c3)ncn2)c(OC)cc1N1CCC(N2CCN(C3CC3)CC2)CC1 [Example 65, N-(2-(4-(4-cyclopropylpiperazine-1-yl)piperidine-1-yl)-4-methoxy-5-((6-((R)-3-(3-methoxyphenyl)isoxazolidine-2-yl)pyrimidine-4-yl)amino)phenyl) acrylamide] |
| A (GI50 < 50 nM) | C=CC(=O)Nc1cc(Nc2cc(N3OCC[C@@H]3c3cccc(C(F)(F)F)c3)ncn2)c(OC)cc1N1CCN(C)CC1 [compound 450, N-(4-methoxy-2-(4-methylpiperazine-1-yl)-5-((6-((R)-3-(3-(trifluoromethyl)phenyl)isoxazolidine-2-yl)pyrimidine-4-yl)amino)phenyl)acrylamide] |
| A (GI50 < 50 nM) | C=CC(=O)Nc1cc(Nc2cc(N3OCC[C@@H]3c3cc(F)cc(F)c3)ncn2)c(OC)cc1N1CCC(N2C[C@@H](C)N(CC)[C@@H](C)C2)CC1 [compound 827, N-(5-((6-((R)-3-(3,5-difluorophenyl)isoxazolidine-2-yl)pyrimidine-4-yl)amino)-2-(4-((3S,5R)-4-ethyl-3,5-dimethylpiperazine-1-yl)piperidine-1-yl)-4-methoxyphenyl) acrylamide] |
